For this assay, the target named is mTOR/GbL/Raptor (mTORC1) (Homo sapiens, UniProt P42345). Nature of the assay: mTOR/GbL/Raptor (mTORC1) ELISA assay, phosphorylation of 4E-BP1. The format is biochemical. The note with it: 0.2 nM mTORC1, 10 μM ATP, 50 nM NHis-tagged 4E-BP1. On the procedure: mTOR/GbL/Raptor (mTORC1) ELISA Assay
The measurement of mTORC1 enzyme activity was performed in an ELISA assay format following the phosphorylation of 4E-BP1 protein. All experiments were performed in the 384-well format. Generally, 0.5 μL DMSO containing varying concentrations of the test compound was mixed with 15 μL enzyme solution. Kinase reactions were initiated with the addition of 15 μL of substrates-containing solution. The assay conditions were as follows; 0.2 nM mTORC1, 10 μM ATP and 50 nM NHis-tagged 4E-BP1 in 20 mM Hepes, pH 7.2, 1 mM DTT, 50 mM NaCl, 10 mM MnCl2, 0.02 mg/mL BSA, 0.01% CHAPS, 50 mM β-glycerophosphate. Following an incubation of 120 minutes at ambient temperature, 20 μL of the reaction volume was transferred to a Ni-Chelate-coated 384-well plate. The binding step of the 4E-BP1 protein proceeded for 60 minutes, followed by washing 4 times each with 50 μL of Tris-buffered saline solution (TBS). Anti-phospho-4E-BP1 rabbit-IgG (20 μL, 1:5000) in 5% BSA-TBST (0.2% Tween-20 in TBS) was added and further incubated for 60 minutes. Incubation with a secondary HRP-tagged anti-IgG was similarly performed after washing off the primary antibody (4 washes of 50 μL). Following the final wash step with TBST, 20 μL of SuperSignal ELISA Femto (Pierce Biotechnology) was added and the luminescence measured using an EnVision plate reader.
In general terms: ELISA stands for enzyme-linked immunosorbent assay.

The mark [1] stands for this setting: read-out: activity in mTOR/GbL/Raptor (mTORC1) ELISA assay, activity bands by Table 1 compound number.
The mark [2] stands for this setting: read-out: Activity in mTOR/GbL/Raptor ELISA Assay.

For 22 molecules, IC50 results are on record in patent US20100305093A1, “Inhibitors of mTOR and Methods of Making and Using” (EXELIXIS, INC., priority 2009, published 2010).

Like-named read-outs stand apart in the source and are kept apart here.

As for `COc1ccc(-c2ccc3c(c2)CN(C(=O)c2ccc(S(C)(=O)=O)cc2)CCO3)cn1` [Example 886, 7-[6-(methyloxy)pyridin-3-yl]-4-{[4-(methylsulfonyl)phenyl]carbonyl}-2,3,4,5-tetrahydro-1,4-benzoxazepine], the IC50 under setting [1] lay in the range of 100 to 500 nM.

With `Cc1nc2ccc(-c3ccc4c(c3)CN(C(=O)c3cc5nc(C)sc5n3C)CCO4)cc2[nH]1` [4-[(2,4-dimethyl-4H-pyrrolo[3,2-d][1,3]thiazol-5-yl)carbonyl]-7-(2-methyl-1H-benzimidazol-6-yl)-2,3,4,5-tetrahydro-1,4-benzoxazepine], under setting [2], the IC50 was 17.2 nM.

Consider `Cc1nc2ccc(-c3ccc4c(c3)CN(C(=O)c3ccc(S(=O)(=O)N5CCN(C)CC5)cc3)CCO4)cc2[nH]1` [7-(2-methyl-1H-benzimidazol-6-yl)-4-({4-[(4-methylpiperazin-1-yl)sulfonyl]phenyl}carbonyl)-2,3,4,5-tetrahydro-1,4-benzoxazepine], for which the IC50 under setting [2] amounted to 8.6 nM.

For `O=C(c1ccc(C(=O)C(F)(F)F)cc1)N1CCOc2ccc(-c3cccnc3)cc2C1` [Example 884, 2,2,2-trifluoro-1-{4-[(7-pyridin-3-yl-2,3-dihydro-1,4-benzoxazepin-4(5H)-yl)carbonyl]phenyl}ethanone], under setting [1], the IC50 is 10 to 100 nM.

Regarding `Nc1ccc(-c2ccc3c(c2)CN(C(=O)c2ccc(S(N)(=O)=O)cc2)CCO3)cn1` [4-{[7-(6-aminopyridin-3-yl)-2,3-dihydro-1,4-benzoxazepin-4(5H)-yl]carbonyl}benzenesulfonamide], under setting [2], the IC50 came to 6.6 nM.

With `Cc1nc2ccc(-c3ccc4c(c3)CN(C(=O)c3ccc5c(c3)CCS5(=O)=O)CCO4)cc2[nH]1` [4-[(1,1-dioxido-2,3-dihydro-1-benzothien-5-yl)carbonyl]-7-(2-methyl-1H-benzimidazol-6-yl)-2,3,4,5-tetrahydro-1,4-benzoxazepine], the IC50 under setting [2] turned out to be 4.8 nM.

On to `Cc1ccc(C(=O)N2CCOc3ccc(-c4ccc5nc[nH]c5c4)cc3C2)c(C)c1` [7-(1H-benzimidazol-6-yl)-4-[(2,4-dimethylphenyl)carbonyl]-2,3,4,5-tetrahydro-1,4-benzoxazepine], for which the IC50 under setting [2] was 6.4 nM.

`CCn1c(C(=O)N2CCOc3ccc(-c4ccc5nc(C)[nH]c5c4)cc3C2)c(Cl)c2ccccc21` [4-[(3-chloro-1-ethyl-1H-indol-2-yl)carbonyl]-7-(2-methyl-1H-benzimidazol-6-yl)-2,3,4,5-tetrahydro-1,4-benzoxazepine]: the IC50 under setting [2] amounted to 9.5 nM.

Take `CCc1c(C(=O)N2CCOc3ccc(-c4ccc(C(=O)NCC5CNC5)cc4)cc3C2)ccc(S(C)(=O)=O)c1F` [N-(azetidin-3-ylmethyl)-4-(4-{[2-ethyl-3-fluoro-4-(methylsulfonyl)phenyl]carbonyl}-2,3,4,5-tetrahydro-1,4-benzoxazepin-7-yl)benzamide]: the IC50 under setting [2] amounted to 9.9 nM.

`CCc1c(C(=O)N2CCOc3ccc(-c4ccc(NC(=O)N(C)C)cc4)cc3C2)ccc(S(C)(=O)=O)c1F` [3-[4-(4-{[2-ethyl-3-fluoro-4-(methylsulfonyl)phenyl]carbonyl}-2,3,4,5-tetrahydro-1,4-benzoxazepin-7-yl)phenyl]-1,1-dimethylurea]: the IC50 under setting [2] amounted to 14.4 nM.

Take `CCc1c(C(=O)N2CCOc3ccc(-c4ccc(C(=O)NC)c(F)c4)cc3C2)ccc(S(C)(=O)=O)c1F` [4-(4-{[2-ethyl-3-fluoro-4-(methylsulfonyl)phenyl]carbonyl}-2,3,4,5-tetrahydro-1,4-benzoxazepin-7-yl)-2-fluoro-N-methylbenzamide]: under setting [2], the IC50 is 11.9 nM.

Regarding `O=C(c1ccc(C(O)(O)C(F)(F)F)cc1)N1CCOc2ccc(-c3ccc(-c4ncc[nH]4)cc3)cc2C1` [2,2,2-trifluoro-1-[4-({7-[4-(1H-imidazol-2-yl)phenyl]-2,3-dihydro-1,4-benzoxazepin-4(5H)-yl}carbonyl)phenyl]ethane-1,1-diol], the IC50 under setting [2] was found to be 3 nM.

For `CC(C)NS(=O)(=O)c1ccc(C(=O)N2CCOc3ccc(-c4ccc5nc[nH]c5c4)cc3C2)c(Br)c1` [4-{[7-(1H-benzimidazol-6-yl)-2,3-dihydro-1,4-benzoxazepin-4(5H)-yl]carbonyl}-3-bromo-N-(1-methylethyl)benzenesulfonamide], under setting [2], the IC50 is 5.6 nM.

On to `O=C(c1ccc(-c2csnn2)cc1)N1CCOc2ccc(-c3ccc4cn[nH]c4c3)cc2C1` [7-(1H-indazol-6-yl)-4-{[4-(1,2,3-thiadiazol-4-yl)phenyl]carbonyl}-2,3,4,5-tetrahydro-1,4-benzoxazepine], for which the IC50 under setting [2] was determined as 6.3 nM.

On to `Cc1nc2ccc(-c3ccc4c(c3)CN(C(=O)c3cc(S(=O)(=O)N5CCCC5)cn3C)CCO4)cc2[nH]1` [7-(2-methyl-1H-benzimidazol-6-yl)-4-{[1-methyl-4-(pyrrolidin-1-ylsulfonyl)-1H-pyrrol-2-yl]carbonyl}-2,3,4,5-tetrahydro-1,4-benzoxazepine], for which, under setting [2], the IC50 was found to be 7.1 nM.

As for `CCc1c(C(=O)N2CCOc3ccc(-c4cnc(NCCNC)s4)cc3C2)ccc(S(C)(=O)=O)c1F` [N-[5-(4-{[2-ethyl-3-fluoro-4-(methylsulfonyl)phenyl]carbonyl}-2,3,4,5-tetrahydro-1,4-benzoxazepin-7-yl)-1,3-thiazol-2-yl]-N′-methylethane-1,2-diamine], the IC50 under setting [2] was 5.3 nM.

Consider `COc1ccc(OC)c(S(=O)(=O)c2ccc(C(=O)N3CCOc4ccc(-c5ccc6nc(C)[nH]c6c5)cc4C3)cc2)c1` [4-[(4-{[2,5-bis(methyloxy)phenyl]sulfonyl}phenyl)carbonyl]-7-(2-methyl-1H-benzimidazol-6-yl)-2,3,4,5-tetrahydro-1,4-benzoxazepine], for which the IC50 under setting [2] was found to be 3.2 nM.

For the molecule `COc1ccc(-c2ccc3c(c2)CN(C(=O)c2ccc(S(N)(=O)=O)cc2)CCO3)cn1` [Example 885, 4-({7-[6-(methyloxy)pyridin-3-yl]-2,3-dihydro-1,4-benzoxazepin-4(5H)-yl}carbonyl)benzenesulfonamide], the IC50 under setting [1] fell in the range of 10 to 100 nM.

As to `COc1ccc(-c2ccc3c(c2)CN(C(=O)c2ccc(C(=O)C(F)(F)F)cc2)CCO3)cn1` [Example 887, 2,2,2-trifluoro-1-[4-({7-[6-(methyloxy)pyridin-3-yl]-2,3-dihydro-1,4-benzoxazepin-4(5H)-yl}carbonyl)phenyl]ethanone], the IC50 under setting [1] was 10 to 100 nM.

Consider `CS(=O)(=O)c1ccc(C(=O)N2CCOc3ccc(-c4ccc(N)nc4)cc3C2)cc1` [Example 888, 5-(4-{[4-(methylsulfonyl)phenyl]carbonyl}-2,3,4,5-tetrahydro-1,4-benzoxazepin-7-yl)pyridin-2-amine], for which, under setting [1], the IC50 was 10 to 100 nM.

`CCc1c(C(=O)N2CCOc3ccc(-c4ccc(-c5nc6ccc(C)cc6[nH]5)cc4)cc3C2)ccc(S(C)(=O)=O)c1F` [4-{[2-ethyl-3-fluoro-4-(methylsulfonyl)phenyl]carbonyl}-7-[4-(6-methyl-1H-benzimidazol-2-yl)phenyl]-2,3,4,5-tetrahydro-1,4-benzoxazepine]: the IC50 under setting [2] was 6 nM.

`CCS(=O)(=O)c1ccc(C(=O)N2CCOc3ccc(-c4ccc(N)nc4)cc3C2)c(C)c1F` [Example 566, 5-(4-{[4-(ethylsulfonyl)-3-fluoro-2-methylphenyl]carbonyl}-2,3,4,5-tetrahydro-1,4-benzoxazepin-7-yl)pyridin-2-amine]: the IC50 under setting [1] was not above 10 nM.
